Measured values taken from patent US20210000986A1, “INCLUSION COMPLEXES SUITABLE FOR USE AS A HISTOTRIPSY AGENT” (T.C ISTANBUL MEDIPOL ÜNIVERSITESI, priority 2018, published 2021).

Assays:
kidney HEK-293T cells = assay type: cell-based
Description: The cell viability test is important to determine how the methylated beta-cyclodextrin perfluorohexane inclusion complex interacts with cells in the body.
Inclusion complexes according to the invention were tested using kidney HEK-293T cells from the reticulo-endothelial system organs responsible for cleansing blood in the body and removing various particles and antigens from blood flow and forming inflammatory mediators against immunological stimuli.
For this purpose, beta-cyclodextrin (BCD), methylated beta-cyclodextrin (MCD) and methylated beta-cyclodextrin and perfluorohexane inclusion complex (MIC) solutions at a concentration of 0.1 mg/mL, 0.5 mg/mL and 1 mg/mL were prepared. In addition, perfluorohexane (PFH) at amounts of 0.1 μL, 0.13 μL, 0.15 μL were also tested on the same cells. The amount of perfluorohexane tested was based on the amount of perfluorohexane in 1 mg/mL MIC. It was determined that in 1 mg/mL MIC there is 0.15 μL of perfluorohexane.

[1] = Dynamic light scattering (DLS) size testing; assay type: physicochemical
Text: The size of the complex plays an important role in determining the threshold for histotripsy. Small size particles are more easily injected and they accumulate highly in tumor tissue. […] The results obtained in the DLS tests are shown as a graph in FIG. 2. Herein BCD is beta-cyclodextrin; MBCD is methylated beta-cyclodextrin and MIC refers to the inclusion complex of methylated beta-cyclodextrin and perfluorohexane.

Compound | toxicity (conclusion from cell viability) (kidney HEK-293T cells) | cell viability (kidney HEK-293T cells; human, 0.15 μL) | size (DLS) [1]
FC(F)(F)C(F)(F)C(F)(F)C(F)(F)C(F)(F)C(F)(F)F [perfluorohexane] | not toxic | 89% | 
methylated beta-cyclodextrin |  |  | 19.55 nm
OC[C@H]1O[C@@H]2O[C@H]3[C@H](O)[C@@H](O)[C@@H](O[C@H]4[C@H](O)[C@@H](O)[C@@H](O[C@H]5[C@H](O)[C@@H](O)[C@@H](O[C@H]6[C@H](O)[C@@H](O)[C@@H](O[C@H]7[C@H](O)[C@@H](O)[C@@H](O[C@H]8[C@H](O)[C@@H](O)[C@@H](O[C@H]1[C@H](O)[C@H]2O)O[C@@H]8CO)O[C@@H]7CO)O[C@@H]6CO)O[C@@H]5CO)O[C@@H]4CO)O[C@@H]3CO [beta-cyclodextrin] |  |  | 16.42 nm
